{
  "source": "patent US20020155172A1",
  "about": "“Methods and compounds for decreasing cell toxicity or death” (priority 2000, published 2002)",
  "key": {"[1]": {"test_system": "Q79-Q79 interaction (Q79-ECFP/EYFP-Q79)", "test": "FRET-Q79 assay", "type": "biochemical", "details": "aggregates treated with 100 Congo red; 488 nm excitation, 527 nm emission", "excerpt": "To rule out the possibility that Congo red merely disrupts large polyglutamine aggregates without affecting oligomeric polyglutamine interaction that may be invisible to fluorescence microscopy, we designed a FRET-Q79 assay. In this assay, the expression constructs EYFP-Q79 (enhanced yellow fluorescent protein fused to a polypeptide containing 79 polyglutamines) and Q79-ECFP (enhanced cyan fluorescent protein fused to a polypeptide containing 79 polyglutamines) were co-transfected into HeLa cells. The EYFP-HAQ79 was made by ligation of a SacI/Notl digested insert from HA-Q79 CMX (Sanchez et al., 1999, supra) into the plasmid CFP-C1, described by Sanchez et al. (supra) after Sac1 digestion and blunting. […]\nThe lysates were passed through a needle to ensure release of polyglutamine inclusions from the nuclei. […] The fluorescence resonance energy transfer (FRET) was determined from polyglutamine oligomers formed in Q79-ECFP/EYFP-Q79 expressing cells upon addition of PBS or Congo red. Specifically, the interaction of the tagged Q79 polypeptides was detected by immunofluorescence at 488 nm excitation and 527 nm emission for FRET using a Wallach plate reader, and the ratio of the immunofluorescence was determined. Immunofluorescence levels were also detected for each ECFP and EYFP independent of the effect of Congo red on fluorescence emission wavelengths."}, "R62 transgenic mice": {"test_system": "R62 transgenic mice", "test": "Rotorod, muscle strength, first study", "type": "in vivo", "details": "R62Tg mice; 10 rpm, maximum 60 seconds; versus R62Tg without Congo red", "method": "FIG. 9 is a graph showing the effect of intraperitoneal injection of Congo red on the motor performance in the mouse model of Huntington's disease (R62). Wild type mice or R62 transgenic mice carrying a polyglutamine repeat (R62Tg) were injected with either 0.5 ml of 1 mg/ml Congo red in phosphate buffered saline (PBS) or PBS alone and tested for their muscle strength by measuring their ability to remain on the rotorod at 10 rpm for a maximum period of 60 seconds.\nTransgenic R62 mice that express the human Huntington's disease gene (carrying a 139-157 CAG repeat; Mangiarini et al., Cell 87:493-506, 1996; Carter et al., J. Neurosci. 19:3248-3257, 1999; and Levine et al., J. Neurosci. Res. 58:515-532, 1999) were used to examine the effects of Congo red on cell death or toxicity. […]\nThe latter procedure involved administration of 0.25 μl of the drug (1 mg/ml in 0.4% DMSO) per hour, for a period of at least 28 days. […] Polyglutamine inclusions were readily detected at the beginning of treatment. The effect of Congo red on the polyglutamine-induced toxicity in muscle strength in the animal model R62 was quantified by the use of a rotorod.\nThe mice were trained every day for a week after which time the latency to fall from a rotorod at a speed of 10 rpm was measured for each mouse, with a maximum time of 60 seconds per trial, as described by Carter et al., (J. Neurosci. 19:3248-3257, 1999). […]"}, "R62 mice": {"test_system": "R62 mice", "test": "EM48 immunostaining of polyglutamine aggregates in brain", "type": "in vivo", "method": "To test whether Congo red can disrupt and inhibit the formation of expanded polyglutamine oligomers in vivo, we analyzed the brain samples from control- and Congo red-treated […] mice. Mice were anesthetized with isoflurane, perfused intracardially with 4% paraformaldehyde in phosphate buffered saline (pH 7.4). The brain was removed and washed several times in PBS before overnight incubation in PBS containing 30% sucrose, and was then embedded in OTC (Sigma, MO.). Cryostat frozen sections were washed in PBS, and non-specific binding was blocked with 5% normal goat serum in PBS containing 0.1% Triton. Sections were stained using an anti-EM48 antibody at a 1:1000 dilution, and immunoreactivity was detected using the ABC kit, as described by the manufacturer (Vector, Co.). Some slides were lightly counter stained with hematoxylin."}, "cells; primary neurons": {"test_system": "cells; primary neurons", "test": "Compound toxicity in cells", "type": "cell-based"}, "caspase-1, -8, or -11": {"test_system": "caspase-1, -8, or -11", "test": "Apoptosis induced by overexpression of caspases", "type": "cell-based", "method": "FIG. 5H is a graph of the effects of Congo red on cell death induced by caspase over-expression(caspases-8, -1, or -11).\nHeLa cells expressing Q79 expanded polyglutamine repeats were treated with 100 μM Congo red, or 100 μM ZVAD (a positive control) for one hour prior to the addition of the apoptosis-inducing agent, and cell death was determined 48 hours later. […] Finally we tested whether Congo red can inhibit apoptosis induced by overexpression of caspase-1, -8, or -11."}, "[2]": {"test_system": "polyglutamine aggregates of HA-Q79-GFP expressing cells", "test": "Filter assay (0.2 μm acetate filter)", "type": "cell-based", "method": "FIG. 6D is a scanned image of a filter showing the effect of Congo red on pre-formed oligomers as assessed by the filter assay described herein. Cells were treated with PBS or 100 μM of Congo red 6 hours after transfection with Q79-GFP. Lysates from these cells were obtained 42 hours later, and passed through a 0.2 micron pore filter. In addition, Q79 aggregates were treated with Congo red after they were recovered from cells to test for disruption of pre-formed aggregates.\nFIG. 7C is an image of an immunoblot of lysates from Q79 expressing cells that were treated with PBS or Congo red during or after transfection, as indicated in the Figure and passed through a 0.2 micron filter. Endogenous caspase-8 and the adapter protein FADD were trapped in the filter in cell lysates containing oligomerized polyglutamine repeats, and probed using a caspase-8 or FADD antibody.\nTo further confirm the ability of Congo red to inhibit the formation of polyglutamine aggregates, as well as to disrupt preformed aggregates, we analyzed the state of polyglutamine aggregation by examining equal aliquots of total lysates from Congo-red- or vehicle-treated HA-Q79-GFP expressing cells, or the lysates that were treated with Congo red or vehicle after cell lysis. The cell lysates were passed through a 0.2 μm acetate filter and then visualized by immunostaining with anti-HA antibody (FIG. 6D)."}},
  "data": [
    {"smiles": "Nc1c(/N=N/c2ccc(-c3ccc(/N=N/c4cc(S(=O)(=O)O)c5ccccc5c4N)cc3)cc2)cc(S(=O)(=O)O)c2ccccc12", "note": "[Congo red, diphenyldiazo-bis-alpha-napthylaminesulfonate]", "values": [
      {"measurement": "FRET ratio", "setting": "[1]", "value": "significantly reduced"},
      {"measurement": "ability to remain on the rotorod", "setting": "R62 transgenic mice", "value": "exhibited a better ability to remain on the rotorod"},
      {"measurement": "EM48 positive polyglutamine aggregates in the cortex and hippocampus", "setting": "R62 mice; R62 mice", "value": "reduction of EM48 positive polyglutamine aggregates"},
      {"measurement": "expanded polyglutamine repeats in the basal ganglia (EM48)", "setting": "R62 mice; R62 mice 12.5 weeks old", "value": "Extensive clearance of expanded polyglutamine repeats"},
      {"measurement": "compound toxicity in cells", "setting": "cells; primary neurons", "value": "not toxic even to primary neurons"},
      {"measurement": "apoptosis induced by overexpression of caspase-1, -8, or -11", "setting": "caspase-1, -8, or -11", "value": "had no effect on caspase induced cell death"},
      {"measurement": "polyglutamine aggregates retained by 0.2 μm filter, lysates treated", "setting": "[2]; cell lysates treated with Congo red after cell lysis", "value": "undetectable"},
      {"measurement": "polyglutamine aggregates retained by 0.2 μm filter, cells treated", "setting": "[2]; cells treated with Congo red (100 μM) 6 hours after transfection", "value": "undetectable"},
      {"measurement": "FADD and caspase-8 in a complex retained by 0.2 μm filter", "setting": "[2]; lysates of Q79 expressing cells", "value": "not in Congo red-treated lysates"}
    ]}
  ]
}
